Reference: patent US20080200405A1, “Drug Resistance Reversal In Neoplastic Disease” (priority 2007, published 2008)
Like-named read-outs stand apart in the source and are kept apart here.

Key:
Lipid peroxidation = Lipid peroxidation inhibition (method of Ohkawa); assay type: biochemical
[1] = test system: Human whole blood clot formation; settings: for Clot Strength - MA / Time to Clot Initiation R: TEG, human whole blood
Method: TEG: Human whole blood (±drugs) was added to the cylindrical cuvette (“cup”). […] The cup oscillates 4°45′ ( 1/12 radian) in either direction every 4.5 seconds, with a 1-second mid-cycle stationary period, resulting in a frequency of 0.1 Hz and a maximal shear rate of 0.1 per second. The pin was suspended by a torsion wire that acts as a torque transducer. […] The torque experienced by the pin (relative to the oscillation of the cup) was plotted as a function of time (Forsythe, S. A. M. S. K. M. S. (2000): “Comparative In Vitro Efficacy of Different Platelet Glycoprotein IIb/IIIa Antagonists on Platelet-Mediated Clot Strength Induced by Tissue Factor With Use of Thromboelastography.” Arteriosclerosis, Thrombosis, and Vascular Biology 20: 1162).
(Data represent mean ±SD, n=6 (blood form normal healthy volunteers), *P<0.01 as compared to control)

TNFα = experiment: Measurement of LPS Induced-TNFα in THP-1 Cells; assay type: cell-based, human; settings: Homo sapiens, THP-1
[2] = test system: Doxorubicin resistant SaOS2 cells; experiment: Cancer cell viability (MTT) in the presence or absence of doxorubicin; assay type: cell-based, human; settings: compound 50 ug/mL, 3 days
[3] = test system: doxorubicin-sensitive and doxorubicin-resistant cells (osteosarcoma, breast cancer, neuroblastoma); experiment: Evaluation of chemoresistance, Compound 4 alone or combined with doxorubicin; assay type: cell-based, human
Method: A method for evaluating a compound's propensity to overcome cancer cell chemoresistance is described in “Caspase Inhibition Switches Doxorubicin-Induced Apoptosis To Senescence”, Abdelhadi Rebbaa, Xin Zheng, Pauline M Chou and Bernard L Mirkin, Oncogene (2003) 22, 2805-2811. Human neuroblastoma SKN-SH cells (ATCC Cat. No. HTB-11) were cultured in Dulbecco's Modified Eagles Medium (DMEM; Gibco, Grand Island, N.Y.) supplemented with 10% fetal bovine serum (FBS; Sigma-Aldrich, St. Louis, Mo.) at 37° C. in a 95% Air/5% CO2 atmosphere. Resistant human cancer cells to doxorubicin were selected by stepwise exposure to drug concentrations ranging from 10^−9M-10^−6M over 3 months. They were then subjected to treatment with the doxorubicin alone or in combination with hydroxylamine compounds. The cells were incubated with the drugs for 72 hours, and cell viability was measured by the MTT assay. This consists of adding 10 μl/well of MTT (5 mg/ml solution) and incubation for 4 h at 37° C. The precipitate formed is then solubilized by addition of 100 μl of HCL 0.5 N/Isopropanol and incubation for 15 hours at 37° C. The optical density is measured at 570 nm and cell survival is estimated by comparison to untreated cells. Each point represents 4 wells data represent average +/−SE. Additionally, molecular pathways that might be associated with increased chemo-responsiveness with these compounds were investigated.
Cytotoxic activity of doxorubicin and hydroxylamine analogs were quantitatively determined by a colorimetric assay utilizing 3-(4,5-dimethyl-2-thiazolyl) 2,5-diphenyl tetrazolium bromide (MTT; Sigma-Aldrich, St. Louis, Mo.). Briefly, cells were seeded at 10^4 cells/well in 96-well plates and maintained in culture for 24 hours at 37° C. in DMEM supplemented with 10% FBS. […] The optical density of this solution was measured at 570 nm and the percentage of viable cells estimated by comparison with untreated control cells.

[4] = test system: bFGF-induced angiogenesis in the CAM model; experiment: bFGF (FGF2)-stimulated CAM model; assay type: in vivo, chicken; settings: bFGF/FGF2 1 ug, 30 ug injected
Method: (§1) In vivo neovascularization was examined by the method previously described by Auerbach et al. (J. Dev. Biol. 41:391-394 (1974)). Ten-day old chicken embryos were purchased from Spafas, Inc. (Preston, Conn.) and were incubated at 37° C. with 55% relative humidity. In the dark, with the aid of a candling lamp, a small hole was punctured in the shell concealing the air sac with a hypodermic needle. A second hole was punctured in the shell on the broadside of the egg directly over an […] portion of the embryonic membrane, as observed during candling. An artificial air sac was created beneath the second hole by applying gentle vacuum to the first hole using a small rubber squeeze bulb. The vacuum caused the chorioallantoic membrane (CAM) to separate from the shell.
For inducing angiogenesis, sterile filter disks were saturated with bFGF (1 μg/ml) (Life Technologies, Gaithersburg, Md.) or other pro-angiogenesis factors and control disks were saturated with PBS without Calcium and Magnesium. Control disks were saturated with PBS without Calcium and Magnesium.
After 24-48 hr, 10-25 ul of test agent was injected intravenously or added topically into the CAM membrane. Eight-Ten eggs/treatment group were used.
(§2) The number of vessel branch points contained in a circular region equal to the area of a filter disk was counted for each section. Percent inhibition data are expressed as the quotient of the experimental value minus the negative control value divided by the difference between the positive control value and the negative control value. One image was counted in each CAM preparation, and findings from eight CAM preparations were analyzed for each treatment condition. In addition, each experiment was performed three times. The resulting angiogenesis index is the mean ±SEM (Standard Error of Measurement) of new branch points in each set of treatment. Statistical analysis of blood vessel branching patterns are performed by 1-way analysis of variance (ANOVA) comparing experimental with corresponding control groups. Statistical significance differences are assessed at P value of <0.05.
The CAM model protocol was modified to include stimulus with bFGF. The effect of injected OT 551 was assayed.
TP-H was applied to the CAM model study to determine its respective anti-angiogenesis effects according to the materials and methods provided in Example 1. Basic Fibroblast Growth Factor (bFGF) was used to induce angiogenesis in the CAM model.
Compounds were introduced via injection to the CAM model study to determine its respective anti-angiogenesis effects according to the materials and methods provided in Example 1. bFGF was used to induce angiogenesis in the CAM model.

mouse V79 cells = settings: cited from earlier work
[5] = test system: H2O2-induced angiogenesis in the CAM model; experiment: H2O2-induced angiogenesis in the CAM model; assay type: in vivo, chicken; settings: for Branch pts ± SEM: H2O2 88 μM, 30 ng
Method: as §1
A pro-angiogenic agent was added to induce new blood vessel branches on the CAM of 10-day old embryos. Filter disks of #1 filter paper (Whatman International, United Kingdom) were punched using a small puncher and were soaked in 3 mg/mL cortisone acetate (Sigma, St. Louis, Mo.) in a solution (95% ethanol and water). The disks were subsequently air dried under sterile conditions. The disks were then suspended in PBS (Phosphate Buffered Saline) and placed on growing CAMs. Filters treated with TP-H (TEMPOL-H) or TEMPOL and/or H2O2 or TP-H and/or bFGF or VEGF were placed on the first day of the 3-day incubation.
as §2
TP-H (TEMPOL-H, the hydroxylamine reduced form of the nitroxide 4-hydroxy-2,2,6,6-tetramethylpiperidin-1-yloxy) or TEMPOL (4-hydroxy-2,2,6,6-tetramethylpiperidine-N-oxyl radical) was applied to the CAM model study to determine its respective anti-angiogenesis effects according to the materials and methods provided in Example 1. H2O2 was used to induce angiogensis in the CAM model.

lens endothelial cells = settings: in vitro; cited from earlier work
[6] = test system: selenite induced cataract; experiment: Selenite induced cataract in mice; settings: mouse, in vivo
Description: In addition, as mentioned above, there is no precedent for the prevention of growth factor-induced angiogenesis by either TEMPOL or hydroxylamines.

[7] = Bevacizumab 1 ng/cup + Comp. 4 1 uM
[8] = Bevacizumab 1 ng/cup + Comp. 4 10 uM
[9] = Ranibizumab 1 ng/cup + Comp. 4 1 uM
[10] = Ranibizumab 1 ng/cup + Comp. 4 10 uM

With `CC1(C)CC(Oc2nsnc2N2CCOCC2)CC(C)(C)N1O.Cl` [Compound 4, 4-(4-(2,2,6,6-tetramethylpiperidin-1-hydroxyl-4-yloxy)-1,2,5-thiazol-3-yl)morpholine hydrogen chloride] the “% Lipid Peroxidation inhibition (at 1 uM)” value (Lipid peroxidation; 1 uM) was 87.0%, the “Lipid Peroxidation Inhibition, % Inhibition” value (Lipid peroxidation; 10 uM) was 91.4% and the “Clot Strength - MA” value [1, 7] was 9.6 ± 2.3 mm. For the same compound, the “Time to Clot Initiation R” value [1, 7] was 14.3 ± 2.2 min, the “Clot Strength - MA” value [1, 8] was 5.0 ± 1.2 mm and the “Time to Clot Initiation R” value [1, 8] was 21.3 ± 4.2 min. The “Clot Strength - MA” value [1, 9] was 6.7 ± 1.5 mm, the “Time to Clot Initiation R” value [1, 9] was 16.8 ± 1.7 min and the “Clot Strength - MA” value [1, 10] was 2.7 ± 0.7 mm. The “Time to Clot Initiation R” value [1, 10] was 23.3 ± 2.3 min, the “effect on clot formation with Bevacizumab/Ranibizumab” value ([1]; compound 4 at 1 ug and 10 ug) was “delayed the clot formation” and the inhibition at 10 µM (TNFα; compound 10 uM, 5 ng/mL LPS, read-out: Mean Percent Inhibition of TNF-alpha using 5 ng/mL LPS) was 61 ± 10%. For the same compound, the IC50 (TNFα; read-out: TNFalpha IC50) was 6.7 µM, the “Mean OD (×10^−3), MTT viability” value ([2]; Dox. 10^−6 M (+)) was 88.00 ×10^−3 and the “Mean OD (×10^−3), MTT viability” value ([2]; absence of Dox. (−)) was 468.50 ×10^−3. For the same compound, the “underlying mechanism (cell cycle arrest, apoptosis markers)” value [3] was “increased expression of p21/WAF1 and caspase-3 activation”, the “reversal of drug resistance” value ([3]; combined with doxorubicin, osteosarcoma, breast cancer, neuroblastoma) was “strong ability to reverse drug resistance” and the “killing of cells, compound alone” value ([3]; doxorubicin-sensitive and doxorubicin-resistant cells) was “enhanced the killing of both doxorubicin-sensitive (P<0.001) and doxorubicin-resistant cells”. The inhibition in vivo at 0.03 mg ([4]; Gallus gallus, read-out: % Inhibition ± SEM) was 92.8 ± 16.5% and the “Branch pts ± SEM” value [4] was 72.3 ± 12.2.
In the case of `CC1(C)CC(O)CC(C)(C)N1[O]` [TEMPOL, 4-hydroxy-2,2,6,6-tetramethylpiperidine-N-oxyl radical, reference compound], the “radioprotection of mouse V79 cells” value (mouse V79 cells) is listed as “concentration dependent”, the “Branch pts ± SEM” value ([5]; 100 μg) is listed as 152.2 ± 18.8 and the “Branch pts ± SEM” value ([5]; 200 μg) is listed as 151.8 ± 12.5. For the same compound, the “Branch pts ± SEM” value ([5]; 400 μg) was 150.0 ± 7.7, the “Branch pts ± SEM” value ([5]; 800 μg) was 122.8 ± 3.0 and the “inhibition of angiogenesis induced by super-maximal concentrations of H2O2” value ([5]; in vivo) was “effectively inhibited”. The “prevention of X-ray radiation damage to lens endothelial cells” value (lens endothelial cells) was “prevented X-ray radiation damage” and the “prevention of selenite induced cataract” value [6] was “not effective”.
